Experimental data taken from patent US5459147A, “Substituted benzimidazolyl derivatives and pharmaceutical compositions containing these compounds” (Dr. Karl Thomae GmbH, priority 1992, dated 1995).
pIC50: −log10 of the molar value.

Target: T1, Angiotensin II-receptor (Rattus norvegicus, UniProt P25095)
T1 construct: The tissue (rats lung) is homogenised in Tris-buffer; from tissue; host or cells: rat lung homogenate (washed 20,000×g pellet)
T1 sequence (P25095 1-359): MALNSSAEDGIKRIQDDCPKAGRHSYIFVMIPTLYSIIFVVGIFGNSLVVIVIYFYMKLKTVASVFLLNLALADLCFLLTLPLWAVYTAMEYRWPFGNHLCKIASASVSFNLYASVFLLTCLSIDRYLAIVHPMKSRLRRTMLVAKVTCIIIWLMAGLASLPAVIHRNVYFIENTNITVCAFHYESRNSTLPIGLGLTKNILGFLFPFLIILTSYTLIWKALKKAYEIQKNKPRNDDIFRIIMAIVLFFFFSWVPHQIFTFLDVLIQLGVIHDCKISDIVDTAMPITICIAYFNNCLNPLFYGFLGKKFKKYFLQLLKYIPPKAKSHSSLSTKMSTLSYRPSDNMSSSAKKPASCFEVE
Assay: Angiotensin II-receptor bonding
Assay type: binding
Details: rats lung homogenate; 50 pM [125I]-angiotensin II; 60 minutes at 37° C., pH 7.40
Description: Description of method: Angiotensin II-receptor bonding
The tissue (rats lung) is homogenised in Tris-buffer (50 mMol Tris, 150 mMol NaCl, 5 mMol EDTA, pH 7.40) and centrifuged twice for 20 minutes at 20,000×g. The finished pellets are resuspended in incubating buffer (50 mMol Tris, 5 mMol MgCl2, 0.2% BSA, pH 7.40) 1:75, based on the moist weight of the tissue. Each 0.1 ml of homogenate is incubated for 60 minutes at 37° C. with 50 pM [^125 I]-angiotensin II (NEN, Dreieich, FRG) with increasing concentrations of the test substance in a total volume of 0.25 ml. Incubation is ended by rapid filtration through glass fiber filter mats. The filters are each washed with 4 ml of ice cold buffer (25 mMol Tris, 2.5 mMol MgCl2, 0.1% BSA, pH 7.40). The bound radioactivity is measured using a gamma-counter. The corresponding IC50 value is obtained from the dose-activity curve.

| Compound | pIC50 |
| --- | --- |
| CCCc1nc2c(C)cc(-c3nc4ccccc4n3C)cc2n1Cc1ccc2nc(-c3ccccc3)n(CC(=O)O)c2c1 [Substance B, 1-hydroxycarbonylmethyl-2-phenyl-6-[(2-n-propyl-4-methyl-6-(1-methyl-benzimidazol-2-yl)-benzimidazol-1-yl)-methyl]-benzimidazole] | 7.64 |
| CCc1nc2c(C)cc(C)nc2n1Cc1ccc2c(c1)nc(-c1ccccc1)n2CC(=O)O [Substance A, 1-hydroxycarbonylmethyl-2-phenyl-5-[(2-ethyl-4,6-dimethyl-imidazo[4,5-b]pyridin-1-yl)-methyl]-benzimidazole-trihydrate] | 6.92 |
| CCCc1nc2c(C)cc(-c3nc4ccccc4n3C)cc2n1Cc1ccc2c(c1)nc(-c1ccccc1)n2Cc1nnn[nH]1 [Substance C, 1-[(1H-tetrazol-5-yl)-methyl]-2-phenyl-5-[(2-n-propyl-4-methyl-6-(1-methyl-benzimidazol-2-yl)-benzimidazol-1-yl)-methyl]-benzimidazole] | 8.64 |
